How the values were obtained:
Test in all cases: relative viability (nuclei count vs DMSO), 5 days (fraction); higher = more cells survive
[1] = compound: Cn1cc(-c2cnn3c(N)c(Br)c([C@@H]4CCCNC4)nc23)cn1 + CC(=O)Nc1cccc(-n2c(=O)n(C3CC3)c(=O)c3c(Nc4ccc(I)cc4F)n(C)c(=O)c(C)c32)c1 [Trametinib] (partner 0.02 µM)
In short: (§1)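 Lung cancer cell lines in 1536-well plates were dosed by pin tool the day after seeding, either with one drug alone or with a fixed anchor-drug dose plus five library-drug doses (not always all listed) in √10 steps. After 5 days, cells were fixed and their nuclei stained in one step (final 0.05% Triton X-100, 1% formaldehyde, 1 ug/ml Hoechst), then counted on 4× images. Relative viability is the nuclei count in treated wells divided by that in vehicle wells. Values are medians of duplicate plates.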

[2] = compound: Cn1cc(-c2cnn3c(N)c(Br)c([C@@H]4CCCNC4)nc23)cn1 + CC1(C)CCC(c2ccc(Cl)cc2)=C(CN2CCN(c3ccc(C(=O)NS(=O)(=O)c4ccc(N[C@H](CCN5CCOCC5)CSc5ccccc5)c(S(=O)(=O)C(F)(F)F)c4)cc3)CC2)C1 [Navitoclax] (partner 0.5 µM)
In short: as §1

[3] = compound: Cn1cc(-c2cnn3c(N)c(Br)c([C@@H]4CCCNC4)nc23)cn1 + Nc1nc2[nH]cc(CCc3ccc(C(=O)N[C@@H](CCC(=O)O)C(=O)O)cc3)c2c(=O)[nH]1 [Pemetrexed] (partner 0.2 µM)
In short: as §1

[4] = compound: Cn1cc(-c2cnn3c(N)c(Br)c([C@@H]4CCCNC4)nc23)cn1 + N=C(N)NC(=N)NCCc1ccccc1 [Phenformin] (partner 250 µM)
In short: as §1

| Cell Line | relative viability ([1]; first compound 0.05 µM) | relative viability ([1]; first compound 0.1581 µM) | relative viability ([1]; first compound 0.5 µM) | relative viability ([1]; first compound 1.581 µM) | relative viability ([1]; first compound 5 µM) | relative viability ([2]; first compound 0.05 µM) | relative viability ([2]; first compound 0.1581 µM) | relative viability ([2]; first compound 0.5 µM) | relative viability ([2]; first compound 1.581 µM) | relative viability ([2]; first compound 5 µM) | relative viability ([3]; first compound 0.05 µM) | relative viability ([3]; first compound 0.1581 µM) | relative viability ([3]; first compound 0.5 µM) | relative viability ([3]; first compound 1.581 µM) | relative viability ([3]; first compound 5 µM) | relative viability ([4]; first compound 0.05 µM) | relative viability ([4]; first compound 0.1581 µM) | relative viability ([4]; first compound 0.5 µM) | relative viability ([4]; first compound 1.581 µM) | relative viability ([4]; first compound 5 µM) |
| --- | --- | --- | --- | --- | --- | --- | --- | --- | --- | --- | --- | --- | --- | --- | --- | --- | --- | --- | --- | --- |
| NCI-H2087 | 0.151 | 0.203 | 0.178 | 0.164 | 0.189 | 1.02 | 1.14 | 1.04 | 1.05 | 0.948 | 0.671 | 0.637 | 0.615 | 0.582 | 0.647 | 0.47 | 0.479 | 0.483 | 0.485 | 0.507 |
| LU99A | 0.464 | 0.572 | 0.599 | 0.492 | 0.518 | 0.962 | 0.875 | 0.801 | 0.699 | 0.601 | 0.19 | 0.144 | 0.139 | 0.124 | 0.129 | 0.749 | 0.789 | 0.766 | 0.802 | 0.582 |
| NCI-H1355 | 0.369 | 0.426 | 0.433 | 0.491 | 0.417 | 0.964 | 0.945 | 0.926 | 0.986 | 0.857 | 0.978 | 1.16 | 1.11 | 1.08 | 0.88 | 0.428 | 0.51 | 0.467 | 0.366 | 0.415 |
| NCI-H520 | 0.685 | 0.642 | 0.591 | 0.699 | 0.542 | 1.21 | 1.01 | 0.966 | 1.13 | 0.883 | 0.596 | 0.584 | 0.554 | 0.452 | 0.296 | 0.52 | 0.587 | 0.596 | 0.461 | 0.348 |
| NCI-H661 | 0.562 | 0.59 | 0.495 | 0.534 | 0.478 |  |  |  |  |  | 0.98 | 0.635 | 0.667 | 0.754 | 0.588 | 0.273 | 0.259 | 0.29 | 0.283 | 0.276 |
| NCI-H650 | 0.913 | 1.01 | 0.957 | 0.901 | 0.82 |  |  |  |  |  | 0.893 | 0.93 | 0.92 | 0.919 | 0.63 | 0.426 | 0.413 | 0.447 | 0.486 | 0.399 |
| NCI-H647 | 0.52 | 0.44 | 0.403 | 0.373 | 0.313 | 1.25 | 1.11 | 0.902 | 0.853 | 0.406 | 0.174 | 0.104 | 0.104 | 0.114 | 0.0596 | 0.367 | 0.491 | 0.598 | 0.177 | 0.215 |
| 201T | 0.692 | 0.751 | 0.687 | 0.722 | 0.7 | 1.14 | 1.18 | 1.16 | 1.32 | 1.22 | 0.362 | 0.327 | 0.315 | 0.264 | 0.294 | 0.452 | 0.517 | 0.429 | 0.366 | 0.405 |
| NCI-H838 | 0.501 | 0.521 | 0.496 | 0.505 | 0.471 | 1.15 | 1.21 | 1.08 | 1.08 | 1.16 | 0.229 | 0.168 | 0.175 | 0.17 | 0.151 | 0.483 | 0.66 | 0.552 | 0.324 | 0.554 |
| SW 1573 | 0.538 | 0.642 | 0.558 | 0.506 | 0.516 | 0.976 | 1.07 | 1.08 | 0.853 | 1.07 | 1 | 0.759 | 0.832 | 0.526 | 0.824 | 0.388 | 0.381 | 0.325 | 0.215 | 0.219 |
| PC-14 | 0.816 | 0.929 | 0.581 | 0.337 | 0.272 | 1.06 | 1.14 | 0.924 | 0.69 | 0.444 | 0.13 | 0.1 | 0.102 | 0.089 | 0.0648 | 0.515 | 0.429 | 0.668 | 0.388 | 0.211 |
| LK-2 | 0.974 | 1.05 | 0.719 | 0.626 | 0.625 | 0.915 | 0.711 | 0.699 | 0.627 | 0.555 | 0.271 | 0.309 | 0.271 | 0.278 | 0.124 | 0.374 | 0.471 | 0.258 |  | 0.286 |
| COR-L23 | 0.694 | 0.671 | 0.582 | 0.437 | 0.232 | 0.854 | 1.13 | 0.973 | 0.965 | 0.346 | 0.196 | 0.178 | 0.178 | 0.186 | 0.139 | 0.479 | 0.474 | 0.443 | 0.298 | 0.191 |
| NCI-H1944 | 0.406 | 0.382 | 0.39 | 0.374 | 0.379 | 0.92 | 1.01 | 1.05 | 1.01 | 0.858 | 0.688 | 0.511 | 0.541 | 0.337 | 0.152 | 0.212 | 0.199 | 0.198 | 0.194 | 0.186 |
| LCLC-103H | 0.641 | 0.7 | 0.717 | 0.677 | 0.684 |  |  |  |  |  | 0.539 | 0.463 | 0.482 | 0.428 | 0.298 | 0.297 | 0.338 | 0.364 | 0.3 | 0.299 |
| ABC-1 |  |  |  |  |  |  |  |  |  |  |  |  |  |  |  | 0.252 | 0.236 | 0.254 | 0.218 | 0.192 |
| NCI-H358 | 0.132 | 0.115 | 0.122 | 0.102 | 0.121 |  |  |  |  |  | 0.177 | 0.164 | 0.162 | 0.166 | 0.129 | 0.293 | 0.344 | 0.308 | 0.216 | 0.261 |
| NCI-H1563 |  |  |  |  |  |  |  |  |  |  | 0.754 | 0.647 | 0.782 | 0.753 | 0.532 | 0.593 | 0.658 | 0.642 | 0.614 | 0.605 |
| EBC-1 |  |  |  |  |  | 0.39 | 0.347 | 0.286 | 0.304 | 0.238 |  |  |  |  |  |  |  |  |  |  |
| Calu-6 |  |  |  |  |  | 0.997 | 0.597 | 0.68 | 0.211 | 0.146 |  |  |  |  |  |  |  |  |  |  |

Source: the supplement of paper PMC10307832
